Reference: patent publication US20080069901A1, “Therapeutic Agent for Metastatic Cancer and Cancer Metastasis Inhibitor” (TMRC Co. , Ltd., priority 2004, published 2008)

Key:
[1] = system: Human large cell lung carcinoma LC-1 cells; experiment: Tumor growth delay in nude mice with human large cell lung carcinoma LC-1; assay type: in vivo, BALB/cA-nu/nu mice; conditions: for Tumor Growth Delay Percentage: total 20 mg per kg
Description: As an index of the effect, the tumor growth delay percentage (%) was determined by calculation according to the following equation: Tumor Growth Delay Percentage(%)=(A−B)/B×100 (1)
wherein “A” represents the number of days required for the tumor to increase in its volume as much as 8 times in each cisplatin-administered group; and “B” represents the number of days required for the tumor to increase in its volume as much as 8 times in the control group. In addition, blood urea nitrogen (BUN) was measured as an index of nephrotoxicity.

Melanoma B16 cells = experiment: Animal model of metastasis to bone, Melanoma B16 cells transplanted to the left ventricle; assay type: in vivo, C57BL/6 mice; conditions: oral 1 mg per kg per day
Description: The therapeutic effect and inhibitory effect against metastasis in an animal model of metastasis to bone were evaluated in the following manner. Initially, a test animal was anaesthetized with thiamylal, the precordia was disinfected with iodine and 70% ethanol and was incised to 1 cm along with the midline to expose the ribs. The second interspace of the left sternum was needled to a depth of 2 mm with a needle of a tuberculin syringe 30 G. After observing that fresh blood came up into the syringe, cultured tumor cells in an amount of 10^4 cells in 0.1 mL were injected over one minute or longer. At the time when the animal (mouse) was weakened or paralyzed, the mouse was killed with ether anesthesia, and evaluation was conducted (refer to F. Arguello et al.: A Murine Model of Experimental Metastasis to Bone and Bone Marrow. “Cancer Research”: 1988, 48: 6876-6881).
Melanoma B16 cells (10^4/0.1 mL) were transplanted to the left ventricle of 8-week old female C57BL/6 mice (12 mice per group). […] At the time three weeks after the transplantation when the mice were weakened or paralyzed, the mice were killed under inhalation with ether, the target organs were fixed with 10% formalin, and evaluation of tumor metastasis was conducted.

[2] = system: Human multiple myeloma U266 cells; experiment: Bone metastasis model of human multiple myeloma U266 in NOG mice, serum hIgE level; assay type: in vivo, NOD/SCID/γc^null (NOG) mice
Description: The therapeutic and inhibitory effects of combination use with a bisphosphonate against metastasis in an animal model of metastasis to bone were evaluated in the following manner. Human multiple myeloma U266 cells in an amount of 2×10^6 in 0.2 ml were transplanted to NOD/SCID/γc^null (NOG) mice through their tail vein (10 mice per group). […] 21 days after the transplantation, Aredia containing pamidronate, one of bisphosphonates, as an active ingredient was orally administered at a dose of 1 mg per kg per day for consecutive 8 days (Aredia group). […] 29 days after the tumor transplantation, the human IgE (hIgE) level in the serum was measured, and the therapeutic effect against metastasis to bone was determined (refer to Y. Miyakawa et al.: Establishment of a new model of human multiple myeloma using NOD/SCID/γc^null (NOG) mice. “Biochemical and Biophysical Research Communication”: 2004, 313: 258-262).

[3] = system: murine colorectal cancer Colon 26; experiment: Liver metastasis model of murine colorectal cancer Colon 26 (spleen transplantation), survival; assay type: in vivo, CDF1 mice
Excerpt: When cancer cells are transplanted into the spleen of mice, metastatic cancer is selectively formed in the liver. Use of this model enables various therapeutic experiments in order to control metastasis to liver (refer to MORIKAWA, Kiyoshi, Nude Mouse Spleen Transplantation Method as Human Cancer Liver Metastasis Model, “Oncologia”: 1989, 22(2): p. 100-102, and L. Kopper et al.: Experimental Model for Liver Metastasis Formation Using Lewis Lung Tumor.: “Journal of Cancer Research Clinical Oncology”: 1982, 103: p31-38).
Specifically, a liver metastasis model of murine colorectal cancer Colon 26 was established using 6-week old CDF1 mice. The therapeutic and inhibitory activities were assayed using, as an index, the ratio (life prolongation rate; T/C percentage) of the survival time of a drug-administered group (10 mice per group) to the survival time of a non-drug-administered (control) group (10 mice per group). In the drug-administered group, cisplatin as a platinum complex was dissolved in physiological saline and was orally administered. In the control group, physiological saline alone was orally administered.

[4] = three weeks after transplantation, control 9/10

N.N.[Cl][Pt][Cl] [Cisplatin, cisplatin]
Tumor Growth Delay Percentage ([1]; intermittent intravenous administration, 6.67 mg per kg three times every 7 days): 265% | Growth of cancer (in words) ([1]; low-dose daily administration): inhibits growth of cancer | Tumor Growth Delay Percentage ([1]; low-dose daily intravenous administration, 1.33 mg per kg for 5 consecutive days x 3 courses): >293% | Inhibition of metastasis to bone (in words) (Melanoma B16 cells): significantly inhibits metastasis to bone | Number of mice where metastasis was observed: Vertebral Column, Cervical Region (Melanoma B16 cells; three weeks after transplantation, control 0/10): 0/10 | Number of mice where metastasis was observed: Pectoral Region, Breast Bone (Melanoma B16 cells; three weeks after transplantation, control 4/10): 2/10 | Number of mice where metastasis was observed: Vertebral Column, Sacral Spine (Melanoma B16 cells; three weeks after transplantation, control 6/10): 1/10 | Number of mice where metastasis was observed: Pectoral Region, Blade Bone (Melanoma B16 cells; three weeks after transplantation, control 7/10): 5/10 | Number of mice where metastasis was observed: Vertebral Column, Lumbar Region (Melanoma B16 cells; three weeks after transplantation, control 8/10): 4/10 | Number of mice where metastasis was observed: Pectoral Region, Rib (Melanoma B16 cells; [4]): 5/10 | Number of mice where metastasis was observed: Vertebral Column, Pectoral Region (Melanoma B16 cells; [4]): 6/10 | hIgE Level in serum ([2]; 29 days after transplantation, oral 1 mg per kg per day each, cisplatin day 1-28, Aredia day 21-28, control 351.7 ng/mL): 210.5 ng/mL | Effect on increase in hIgE level due to metastasis to bone (in words) ([2]; oral 1 mg per kg per day): inhibits the increase in hIgE level | Life prolongation effect against liver metastasis (in words) ([3]; oral 1 mg per kg per day): remarkable life prolongation effect | Median Survival Time ([3]; oral 1 mg per kg per day in physiological saline, started one day after transplantation, control 16.0): 31.0 days | T/C (life prolongation rate) ([3]; survival time of drug-administered group to control group, oral 1 mg per kg per day): 194%
